Results taken from patent US10577382B2, “Fused heterocyclic compound” (TAKEDA PHARMACEUTICAL COMPANY LIMITED, priority 2016, dated 2020).

Tests used:
CLK2 enzyme = target: T1, CLK2 enzyme (Homo sapiens, UniProt P49760); test: Measurement of CLK2 inhibitory activity (LANCE time-resolved fluorescence, ULight-labeled MBP peptide); format: biochemical; conditions: compound 1 μM; for inhibition at 1 µM: ATP 1 mM, read-out: CLK2 activity inhibition ratio at compound concentration of 1 μM (ATP 1 mM)
T1 construct: purchased Thermo Fisher Scientific
Experimental: A test compound dissolved in DMSO was added to a reaction solution (50 mM HEPES (pH: 7.5), 10 mM MgCl2, 1 mM EGTA, 2 mM DTT, 0.01% Tween 20, 0.01% BSA) containing a CLK2 enzyme (Thermo Fisher Scientific) and an ULight-labeled MBP peptide (PerkinElmer), and the mixture was then reacted at room temperature for 10 minutes. An ATP solution was added to a final concentration of 1 mM to initiate an enzyme reaction, and the reaction was carried out at room temperature for 60 minutes. A europium-labeled anti-phosphorylated MBP antibody (PerkinElmer) and a LANCE Detection buffer (PerkinElmer) containing EDTA with a final concentration of 20 mM were added to stop the reaction, the mixture was left standing for 60 minutes, and the time-resolved fluorescence value (excitation 320 nm, and emission 615 nm and 665 nm) was measured by Envision (PerkinElmer). The inhibition ratio (%) of CLK2 by the test compound was calculated in accordance with the following expression. Inhibition ratio (%)=(1−(count of test compound−blank)÷(control−blank))×100
The count of the CLK2 enzyme reaction solution without addition of the compound was described as a control, and the count without addition of the compound and addition of the CLK2 enzyme was described as a blank. The concentration at which the inhibition ratio was 50% was defined as an IC50 value.

HCT116 cells = test: Growth inhibitory activity using HCT116 cells (Cell Titer-Glo); format: cell-based, human; conditions: compound 1 μM, 3 days; for inhibition at 1 µM: Homo sapiens, HCT-116, 72 h, read-out: Cell growth inhibition ratio at compound concentration of 1 μM
Experimental: HCT 116 cells (ATCC) were seeded in a 384-well plate at a density of 6×10^2 cells/well, and cultured overnight in a cell culture medium McCoy's 5A (Thermo Fisher Scientific) containing 10% FBS (fetal bovine serum) and 1% penicillin/streptomycin. The dissolved test compound was added in the cell medium, and the cell medium was left standing in a CO2 incubator (37° C.) for 3 days. A Cell Titer-Glo solution (Promega Corporation) was added, the mixture was stirred at room temperature for 10 minutes, and the emission value was measured by Envision (PerkinElmer). The inhibition ratio (%) of HCT116 cell growth by the test compound was calculated in accordance with the following expression. Inhibition ratio (%)=(1−(count of test compound−blank)÷(control−blank))×100
The count of the HCT116 cell suspension without addition of the compound was described as a control, and the count without addition of the compound and addition of HCT116 cells was described as a blank. The concentration at which the inhibition ratio was 50% was defined as an IC50 value.

T1 sequence (P49760 whole entry): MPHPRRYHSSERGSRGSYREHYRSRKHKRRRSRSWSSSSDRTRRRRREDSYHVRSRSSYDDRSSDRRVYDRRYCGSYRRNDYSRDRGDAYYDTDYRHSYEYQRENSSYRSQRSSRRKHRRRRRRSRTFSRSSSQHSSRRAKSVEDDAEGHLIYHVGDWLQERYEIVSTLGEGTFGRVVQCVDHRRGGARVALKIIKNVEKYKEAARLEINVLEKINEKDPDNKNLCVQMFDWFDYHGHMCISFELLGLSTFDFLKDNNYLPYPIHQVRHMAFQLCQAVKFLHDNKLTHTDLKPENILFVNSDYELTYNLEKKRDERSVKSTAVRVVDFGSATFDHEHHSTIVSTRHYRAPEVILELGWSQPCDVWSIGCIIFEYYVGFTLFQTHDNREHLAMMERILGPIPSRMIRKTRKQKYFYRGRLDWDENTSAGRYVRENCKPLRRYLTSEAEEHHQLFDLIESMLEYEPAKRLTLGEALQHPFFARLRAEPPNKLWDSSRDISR

SMILES | CLK2 activity inhibition ratio at compound concentration of 1 μM (ATP 1 mM) (CLK2 enzyme) [%] | inhibition at 1 µM (CLK2 enzyme) [%] | Cell growth inhibition ratio at compound concentration of 1 μM (HCT116 cells) [%] | inhibition at 1 µM (HCT116 cells) [%]
COc1nc2ncc(-n3ccc4ncc(C(C)O)nc43)cc2n1Cc1cccc(F)c1 (stereo not shown) [Example 160, 1-(5-(1-(3-fluorobenzyl)-2-methoxy-1H-imidazo[4,5-b]pyridin-6-yl)-5H-pyrrolo[2,3-b]pyrazin-3-yl)ethanol] | 100 |  | 98 | 
COc1ncnn2ccc(-c3cnc4nc(C)n(Cc5cccc(F)c5)c4c3)c12 [Example 175, 1-(3-fluorobenzyl)-6-(4-methoxypyrrolo[2,1-f][1,2,4]triazin-5-yl)-2-methyl-1H-imidazo[4,5-b]pyridine] |  | 100 |  | 91
COc1ncnn2ccc(-c3cnc4nc(C)n(Cc5nc(C)ns5)c4c3)c12 [Example 229, 6-(4-methoxypyrrolo[2,1-f][1,2,4]triazin-5-yl)-2-methyl-1-((3-methyl-1,2,4-thiadiazol-5-yl)methyl)-1H-imidazo[4,5-b]pyridine] |  | 100 |  | 97
COc1ncnc2ccn(-c3cnc4nc(C)n(Cc5cc(F)cc(F)c5)c4c3)c12 [Example 7, 1-(3,5-difluorobenzyl)-6-(4-methoxy-5H-pyrrolo[3,2-d]pyrimidin-5-yl)-2-methyl-1H-imidazo[4,5-b]pyridine] |  | 100 |  | 92
COc1cnc2ccn(-c3cnc4nc(C)n(Cc5cccc(F)c5)c4c3)c2n1 [Example 110, 1-(3-fluorobenzyl)-6-(3-methoxy-5H-pyrrolo[2,3-b]pyrazin-5-yl)-2-methyl-1H-imidazo[4,5-b]pyridine] |  | 100 |  | 92
COc1ccnc2ccn(-c3cnc4nc(C)n(Cc5cccc(F)c5)c4c3)c12 [Example 102, 1-(3-fluorobenzyl)-6-(7-methoxy-1H-pyrrolo[3,2-b]pyridin-1-yl)-2-methyl-1H-imidazo[4,5-b]pyridine] |  | 100 |  | 95
COc1ccnc2cnn(-c3cnc4nc(C)n(Cc5cccc(F)c5)c4c3)c12 [Example 105, 1-(1-(3-fluorobenzyl)-2-methyl-1H-imidazo[4,5-b]pyridin-6-yl)-7-methoxy-1H-pyrazolo[4,3-b]pyridine] |  | 100 |  | 96
COc1ncnn2ccc(-c3cnc4nc(CO)n(Cc5cc(F)cc(F)c5)c4c3)c12 [Example 176, (1-(3,5-difluorobenzyl)-6-(4-methoxypyrrolo[2,1-f][1,2,4]triazin-5-yl)-1H-imidazo[4,5-b]pyridin-2-yl)methanol] |  | 100 |  | 85
COc1nc2ncc(-n3ccc4ncc(C(C)O)nc43)cc2n1Cc1cccc(F)c1 (stereo not shown) [Example 161, 1-(5-(1-(3-fluorobenzyl)-2-methoxy-1H-imidazo[4,5-b]pyridin-6-yl)-5H-pyrrolo[2,3-b]pyrazin-3-yl)ethanol] |  | 100 |  | 97

Further lines, with some results ahead:

CLK2 activity inhibition ratio at compound concentration of 1 μM (ATP 1 mM) (CLK2 enzyme) [%] | inhibition at 1 µM (CLK2 enzyme) [%] | SMILES | Cell growth inhibition ratio at compound concentration of 1 μM (HCT116 cells) [%] | inhibition at 1 µM (HCT116 cells) [%]
 | 99 | COc1ncnn2ccc(-c3cnc4nc(C)n(Cc5nc(C)no5)c4c3)c12 [Example 186, 6-(4-methoxypyrrolo[2,1-f][1,2,4]triazin-5-yl)-2-methyl-1-((3-methyl-1,2,4-oxadiazol-5-yl)methyl)-1H-imidazo[4,5-b]pyridine] |  | 96
 | 100 | COc1ncnn2ccc(-c3cnc4nc(C)n(Cc5nnc(C6(F)CC6)o5)c4c3)c12 [Example 283, 1-((5-(1-fluorocyclopropyl)-1,3,4-oxadiazol-2-yl)methyl)-6-(4-methoxypyrrolo[2,1-f][1,2,4]triazin-5-yl)-2-methyl-1H-imidazo[4,5-b]pyridine] |  | 96
 | 100 | COc1ncnn2ccc(-c3cnc4nc(C)n(Cc5nnc(C)o5)c4c3)c12 [Example 193, 6-(4-methoxypyrrolo[2,1-f][1,2,4]triazin-5-yl)-2-methyl-1-((5-methyl-1,3,4-oxadiazol-2-yl)methyl)-1H-imidazo[4,5-b]pyridine] |  | 98
 | 100 | COc1ncnn2ccc(-c3cnc4nc(C)n(Cc5nnc(C(C)(F)F)o5)c4c3)c12 [Example 274] |  | 93
 | 100 | COc1ncnn2ccc(-c3cnc4nc(C)n(Cc5nnc(C(F)F)o5)c4c3)c12 [Example 242, 1-((5-(difluoromethyl)-1,3,4-oxadiazol-2-yl)methyl)-6-(4-methoxypyrrolo[2,1-f][1,2,4]triazin-5-yl)-2-methyl-1H-imidazo[4,5-b]pyridine] |  | 94
 | 100 | COc1ncnn2ccc(-c3cnc4nc(C)n(Cc5nnc(C(C)(C)F)o5)c4c3)c12 [Example 277, 1-((5-(2-fluoropropan-2-yl)-1,3,4-oxadiazol-2-yl)methyl)-6-(4-methoxypyrrolo[2,1-f][1,2,4]triazin-5-yl)-2-methyl-1H-imidazo[4,5-b]pyridine] |  | 95
 | 99 | COc1ncnn2ccc(-c3cnc4nc(C)n(Cc5noc(C)n5)c4c3)c12 [Example 214, 6-(4-methoxypyrrolo[2,1-f][1,2,4]triazin-5-yl)-2-methyl-1-((5-methyl-1,2,4-oxadiazol-3-yl)methyl)-1H-imidazo[4,5-b]pyridine] |  | 96
 | 100 | COc1ncnn2ccc(-c3cnc4nc(C)n(Cc5cc(C)no5)c4c3)c12 [Example 215] |  | 95
